Data published in patent US20120202831A1, “Pharmaceutical Formulation” (SANOFI, priority 2009, published 2012).
Like-named read-outs stand apart in the source and are kept apart here.

Assays:
Format in all cases: physicochemical
[1] = physical stability of the perfusion solution (no visible precipitation); details: perfusion solution from compound of formula (I) in PEG alone
[2] = solubility of the compound of formula (I) in media and formulations
[3] = chemical stability of formulations: impurity content by HPLC over time; details: versus PS80 and PS80/ethanol formulations; especially 25° C./60% RH and 30° C./65% RH
Protocol: A study of chemical stability by measuring the impurity content by high performance liquid chromatography (HPLC) was carried out on the formulations making it possible to achieve the target solubility.

physical stability of the perfusion solution [1]: < 24 h
solubility ([2]; medium: PEG 400): 9.5 mg/g
solubility ([2]; medium: ethanol): 3.8 mg/g
solubility ([2]; medium: propylene glycol): 1 mg/g
solubility ([2]; medium: tert-butanol): 1.2 mg/g
solubility ([2]; medium: water): <0.006 mg/g
solubility ([2]; organic solvent or mixture, dilution in PEG alone, read-out: solubility): ≤ 7000 µg/mL
chemical stability compared between formulations [3]: degrades less rapidly
Structure (SMILES): CC(C)(C)NC(=O)Nc1nc2nc(Nc3ccc4nsnc4c3)ncc2cc1-c1c(Cl)cccc1Cl [compound of formula (I)]
